Laboratory results reported in patent publication US20210261527A1, “OGA INHIBITOR COMPOUNDS” (Janssen Pharmaceutica NV, priority 2018, published 2021).
Structures can show the parent of a compound that is named as a salt.

Key:
[1] = target: T1, recombinant human Meningioma Expressed Antigen 5 (MGEA5), also referred to as O-GlcNAcase (OGA) (Homo sapiens, UniProt O60502); assay: OGA biochemical assay (FM-GlcNAc hydrolysis, fluorescence); conditions: full length OGA 2 nM, FM-GlcNAc 100 uM, pH 7.2, 6 h at room temperature; for Emax: read-out: Enzymatic Emax (%); for IC50: read-out: Enzymatic hOGA, pIC50 (converted)
T1 construct: Full length OGA enzyme was purchased at OnGene (cat #TP322411); purchased OnGene (so in the source)
T1 sequence (O60502 1-916): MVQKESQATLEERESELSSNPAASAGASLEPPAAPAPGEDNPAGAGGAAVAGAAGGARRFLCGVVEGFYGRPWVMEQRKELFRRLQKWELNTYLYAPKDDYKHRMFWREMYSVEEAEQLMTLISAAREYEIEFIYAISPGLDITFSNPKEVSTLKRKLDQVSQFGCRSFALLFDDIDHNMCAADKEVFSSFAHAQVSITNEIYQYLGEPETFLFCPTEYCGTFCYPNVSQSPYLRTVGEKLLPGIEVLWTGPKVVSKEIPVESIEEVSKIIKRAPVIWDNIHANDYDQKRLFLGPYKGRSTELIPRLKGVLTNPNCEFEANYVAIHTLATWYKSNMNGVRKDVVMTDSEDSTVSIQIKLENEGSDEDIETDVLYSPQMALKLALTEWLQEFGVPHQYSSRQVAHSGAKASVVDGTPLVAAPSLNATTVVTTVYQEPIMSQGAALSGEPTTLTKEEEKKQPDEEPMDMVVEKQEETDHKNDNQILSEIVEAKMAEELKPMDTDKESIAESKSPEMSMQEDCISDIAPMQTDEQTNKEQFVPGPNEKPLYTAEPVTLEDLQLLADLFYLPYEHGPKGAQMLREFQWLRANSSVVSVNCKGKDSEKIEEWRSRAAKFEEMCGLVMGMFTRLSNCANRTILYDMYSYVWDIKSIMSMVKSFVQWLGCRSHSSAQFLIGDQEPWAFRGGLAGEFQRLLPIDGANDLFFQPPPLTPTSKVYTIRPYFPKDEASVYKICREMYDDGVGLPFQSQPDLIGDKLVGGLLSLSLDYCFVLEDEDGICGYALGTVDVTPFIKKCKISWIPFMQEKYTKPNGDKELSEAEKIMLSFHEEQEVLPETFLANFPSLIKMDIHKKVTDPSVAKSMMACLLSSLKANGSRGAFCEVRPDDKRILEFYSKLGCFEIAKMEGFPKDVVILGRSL
Excerpt: The assay is based on the inhibition of the hydrolysis of fluorescein mono-β-D-N-Acetyl-Glucosamine (FM-GlcNAc) (Mariappa et al. 2015, Biochem J 470:255) by the recombinant human Meningioma Expressed Antigen 5 (MGEA5), also referred to as O-GlcNAcase (OGA). The hydrolysis FM-GlcNAc (Marker Gene technologies, cat #M1485) results in the formation of β-D-N-glucosamineacetate and fluorescein. The fluorescence of the latter can be measured at excitation wavelength 485 nm and emission wavelength 538 nm. An increase in enzyme activity results in an increase in fluorescence signal. Full length OGA enzyme was purchased at OnGene (cat #TP322411). The enzyme was stored in 25 mM Tris.HCl, pH 7.3, 100 mM glycine, 10% glycerol at −20° C. Thiamet G and GlcNAcStatin were tested as reference compounds (Yuzwa et al. 2008 Nature Chemical Biology 4:483; Yuzwa et al. 2012 Nature Chemical Biology 8:393). The assay was performed in 200 mM Citrate/phosphate buffer supplemented with 0.005% Tween-20. 35.6 g Na2HPO4 2 H2O (Sigma, #C0759) were dissolved in 1 L water to obtain a 200 mM solution. 19.2 g citric acid (Merck, #1.06580) was dissolved in 1 L water to obtain a 100 mM solution. pH of the sodiumphosphate solution was adjusted with the citric acid solution to 7.2. The buffer to stop the reaction consists of a 500 mM Carbonate buffer, pH 11.0. 734 mg FM-GlcNAc were dissolved in 5.48 mL DMSO to obtain a 250 mM solution and was stored at −20° C. OGA was used at a 2 nM concentration and FM-GlcNAc at a 100 uM final concentration. Dilutions were prepared in assay buffer.
50 nl of a compound dissolved in DMSO was dispensed on Black Proxiplate™ 384 Plus Assay plates (Perkin Elmer, #6008269) and 3 μl fl-OGA enzyme mix added subsequently. Plates were pre-incubated for 60 min at room temperature and then 2 μl FM-GlcNAc substrate mix added. […] Plates were briefly centrifuged for 1 min at 1000 rpm and incubate at room temperature for 6 h. To stop the reaction 5 μl STOP buffer were added and plates centrifuge again 1 min at 1000 rpm. Fluorescence was quantified in the Thermo Scientific Fluoroskan Ascent or the PerkinElmer EnVision with excitation wavelength 485 nm and emission wavelength 538 nm.
For analysis a best-fit curve is fitted by a minimum sum of squares method. From this an IC50 value and Hill coefficient was obtained. High control (no inhibitor) and low control (saturating concentrations of standard inhibitor) were used to define the minimum and maximum values.

[2] = target: T2, hOGA in HEK293 cells inducible for P301L mutant human Tau (isoform 2N4R) (Homo sapiens, UniProt O60502); assay: OGA cellular assay (ICC detection of O-GlcNAcylated proteins); type: cell-based; conditions: 6 hours incubation; for Emax: maximum = Thiamet G at 200 uM; for EC50: O-GlcNAcylation intensity readout at 488 nm, read-out: Cellular hOGA, pEC50 (converted)
T2 construct: endogenous in cells; host or cells: HEK293 cells inducible for P301L mutant human Tau (isoform 2N4R)
T2 sequence (O60502 1-916): T1 sequence (O60502 1-916)
Description: HEK293 cells inducible for P301L mutant human Tau (isoform 2N4R) were established at Janssen. Thiamet-G was used for both plate validation (high control) and as reference compound (reference EC50 assay validation). OGA inhibition is evaluated through the immunocytochemical (ICC) detection of O-GlcNAcylated proteins by the use of a monoclonal antibody (CTD110.6; Cell Signaling, #9875) detecting 0-GlcNAcylated residues as previously described (Dorfmueller et al. 2010 Chemistry & biology, 17:1250). Inhibition of OGA will result in an increase of O-GlcNAcylated protein levels resulting in an increased signal in the experiment. Cell nuclei are stained with Hoechst to give a cell culture quality control and a rough estimate of immediate compounds toxicity, if any. ICC pictures are imaged with a Perkin Elmer Opera Phenix plate microscope and quantified with the provided software Perkin Elmer Harmony 4.1.
Cells were propagated in DMEM high Glucose (Sigma, #D5796) following standard procedures. 2 days before the cell assay cells are split, counted and seeded in Poly-D-Lysine (PDL) coated 96-wells (Greiner, #655946) plate at a cell density of 12,000 cells per cm^2 (4,000 cells per well) in 100 μl of Assay Medium (Low Glucose medium is used to reduce basal levels of GlcNAcylation) (Park et al. 2014 The Journal of biological chemistry 289:13519). At the day of compound test medium from assay plates was removed and replenished with 90 μl of fresh Assay Medium. 10 μl of compounds at a 10fold final concentration were added to the wells. Plates were centrifuged shortly before incubation in the cell incubator for 6 hours. DMSO concentration was set to 0.2%. Medium is discarded by applying vacuum. For staining of cells medium was removed and cells washed once with 100 μl D-PBS (Sigma, #D8537). From next step onwards unless other stated assay volume was always 50 μl and incubation was performed without agitation and at room temperature. Cells were fixed in 50 μl of a 4% paraformaldehyde (PFA, Alpha aesar, #043368) PBS solution for 15 minutes at room temperature. […] Before analysis samples were washed 2 times manually for 5 minutes in ICC base buffer.
Imaging is performed using Perkin Elmer Phenix Opera using a water 20× objective and recording 9 fields per well. Intensity readout at 488 nm is used as a measure of O-GlcNAcylation level of total proteins in wells. To assess potential toxicity of compounds nuclei were counted using the Hoechst staining. IC50-values are calculated using parametric non-linear regression model fitting. As a maximum inhibition Thiamet G at a 200 uM concentration is present on each plate. In addition, a concentration response of Thiamet G is calculated on each plate.

Row | melting point [°C] | Emax [1] [%] | IC50 [1] [nM] | Emax [2] [%] | EC50 [2] [nM] | Structure (SMILES)
1 | 262.69 | – | – | – | – | Cc1cc(C[C@H]2CCCN(C(C)c3ccc4cccnc4c3)C2)cc(C)n1 (mixture of isomers) (as salt: HCl) [Compound 9]
2 | – | 60.8 | 7240 | – | – | Cc1cc(C[C@H]2CCCN([C@@H](C)c3ccc4ccc(C)nc4c3)C2)cc(C)n1 (single isomer, unassigned) [Compound 2]
3 | – | 101 | 53.7 | 34.8 | > 1000 | Cc1cc(C[C@H]2CCCN([C@H](C)c3ccc4ccc(C)nc4c3)C2)cc(C)n1 (single isomer, unassigned) [Compound 3]
4 | – | 103 | 5.5 | 86.4 | 162 | Cc1cc(C[C@H]2CCCN([C@H](C)c3cnc4cccnc4c3)C2)cc(C)n1 (single isomer, unassigned) [Compound 5]

The next lines start with the molecule.

Row | Structure (SMILES) | melting point [°C] | Emax [1] [%] | IC50 [1] [nM] | Emax [2] [%] | EC50 [2] [nM]
5 | Cc1cc(C[C@H]2CCCN(C(C)c3cc4ncccc4cn3)C2)cc(C)n1 (mixture of isomers) [Compound 6] | – | 99.6 | 47.9 | 41.1 | –
6 | Cc1cc(C[C@H]2CCCN(C(C)c3ccc4cccnc4n3)C2)cc(C)n1 (mixture of isomers) [Compound 7] | – | 101 | 14.8 | 71.1 | 234
7 | Cc1cc(C[C@H]2CCCN(C(C)c3ccc4nc(O)cnc4c3)C2)cc(C)n1 (mixture of isomers) [Compound 10] | – | 101 | 107 | 11.2 | > 1000
8 | Cc1cc(C[C@H]2CCCN([C@@H](C)c3cnc4cccnc4c3)C2)cc(C)n1 (single isomer, unassigned) [Compound 4] | – | 102 | 28.8 | 50.5 | 646
9 | Cc1cc(C[C@H]2CCCN(Cc3ccc4cccnc4c3)C2)cc(C)n1 [Compound 1] | 152.83 | 95.8 | 288 | 33 | > 1000
10 | Cc1cc(C[C@H]2CCCN(Cc3ccc4cccnc4n3)C2)cc(C)n1 [Compound 8] | – | 98.5 | 195 | 29.8 | > 1000
